Results taken from patent US11911356B2, “Regulation of mutant TERT by BRAF V600E/map kinase pathway through FOS/GABP in human cancer” (THE JOHNS HOPKINS UNIVERSITY, priority 2017, dated 2024).

How the values were obtained:
[1] = test system: MEK and ERK phosphorylation; conditions: wild-type BRAF cells; previous finding (refs 28, 29); cited from earlier work
[2] = test system: K1 cells xenograft tumors; experiment: Xenograft tumorigenicity assay; format: in vivo; conditions: K1 xenograft in nude mice
From the text: FIG. 1A-1G. Cooperative role of BRAF V600E and TERT in the oncogenic behavior and tumor growth of cancer cells. Specific shRNA against BRAF and siRNA against TERT were used to knock down BRAF and TERT in the indicated cancer cells, respectively, followed by performance of assays of MTT of cell proliferation (FIG. 1A), transwell cell migration (FIG. 1B), cell invasion (FIG. 1C), and colony formation in soft agar (FIG. 1D) (with representative images shown in the left panel and the average colony numbers in the right panel). Western blotting analysis of TERT and phosphorylation of ERK (p-ERK) was performed for K1 cells (FIG. 1E), from which xenograft tumors were derived to test the role of TERT and BRAF V600E in tumor development and growth (FIG. 1F, FIG. 1G). […] The “Control” in FIG. 1A-1D represented the combination of scramble shRNA and Control siRNA. […] The red horizontal bar on the left of FIG. 1D represents 100 μm; colonies larger than this size were counted and colony numbers are shown on the right of the panel. […]
All animal experiments were approved and performed according to the guidelines of the Institutional Animal Care and Use Committee (IACUC) of Johns Hopkins University. […] Tumor size was measured twice a week on the skin surface of the animal using a caliper and tumor volume was calculated using the formula (width^2×length)/2 as previously described. […]

[3] = test system: ERK phosphorylation; experiment: Western blotting of phosphorylated ERK in inhibitor-treated cells; format: cell-based, human; conditions: 0.5 uM PLX4032, 24 hours
Protocol: FIG. 2A-2G. BRAF V600E/MAPK pathway regulated TERT expression. (FIG. 2A) TERT expression was analyzed by qRT-PCR in cells treated with 0.5 uM PLX4032 or 0.2 uM AZD6244 for 24 hours (upper panel). The corresponding levels of phosphorylated ERK (p-ERK), total ERK (t-ERK), and beta-actin were detected by Western blotting (lower panel). The relative TERT mRNA expression levels were normalized to the DMSO control group. (FIG. 2B) Luciferase reporting assay of TERT promoter activities in K1 cells treated with DMSO or PLX4032 (0.5 uM). (FIG. 2C, 2D) Specific shRNA against BRAF were used to knock down BRAF in thyroid cancer cell lines BCPAP and K1 and melanoma cell line A375. Scramble shRNA was used as control. Cells were then subjected to Western blotting (FIG. 2C) and qRT-PCR (FIG. 2D). (FIG. 2E) Sequencing of the BRAF exon-15 in the parental and heterozygous BRAF-V600E knock-in SW48 cells. BRAF V600E was knocked in on one allele of BRAF by rAAV technology through homologous recombination and Cre recombinase of the Neo cassette. (FIG. 2F) Western blotting analyses of phosphorylation of ERK (p-ERK), total ERK (t-ERK), BRAF, and beta-actin in the parental and BRAF-V600E knock-in SW48 cells. (FIG. 2G) TERT promoter luciferase reporter assay in SW48 cells with/without BRAF V600E knock-in. **P<0.01, ***P<0.001, by 2-tailed Student's t test. P values are for the comparison of the indicated condition with DMSO (FIG. 2B), scramble (FIG. 2D), or BRAF-WT groups (FIG. 2G). All the values represent the average standard deviation (SD) of triplicate samples from a typical experiment. All the experiments were performed three times with similar results. […]
Cells were lysed in the RIPA buffer (#sc-24948; Santa Cruz Biotechnology, Santa Cruz, CA) with protease inhibitor cocktail (#P8340; Sigma-Aldrich) and phosphatase inhibitor cocktail (#P0044; Sigma-Aldrich) and Western blotting analysis was performed as we previously described^54. […] Signals were detected by SuperSignal™ West Pico PLUS Chemiluminescent Substrate (#34579; Thermo Fisher Scientific). […]

CCCS(=O)(=O)Nc1ccc(F)c(C(=O)c2c[nH]c3ncc(-c4ccc(Cl)cc4)cc23)c1F [PLX4032]
MEK and ERK phosphorylation [1]: induced MEK and ERK phosphorylation | tumor growth ([2]; 10 mg/kg PLX4032 daily by oral gavage): inhibited tumor growth | tumor growth ([2]; PLX4032 10 mg/kg daily combined with stable TERT knockdown (shTERT)): nearly completely abolished tumor growth | ERK phosphorylation ([3]; cells harboring BRAF V600E mutation): specifically suppressed ERK phosphorylation | ERK phosphorylation ([3]; several wild-type BRAF cell lines): increase in ERK phosphorylation
